For orientation: EC50 means the concentration needed to bring the measured effect to its halfway point. Read a high EC50 as a less potent agent.

The record followed here is patent US10519191B2, “Bile acid analogs as FXR/TGR5 agonists and methods of use thereof” (Enanta Pharmaceuticals, Inc., priority 2014, dated 2019).

This assay addresses T1, human FXR (NR1H4) (Homo sapiens, UniProt Q96RI1).
T1 construct: host or cells: CHO (Chinese hamster ovary) reporter cells
T1 sequence (Q96RI1 1-486): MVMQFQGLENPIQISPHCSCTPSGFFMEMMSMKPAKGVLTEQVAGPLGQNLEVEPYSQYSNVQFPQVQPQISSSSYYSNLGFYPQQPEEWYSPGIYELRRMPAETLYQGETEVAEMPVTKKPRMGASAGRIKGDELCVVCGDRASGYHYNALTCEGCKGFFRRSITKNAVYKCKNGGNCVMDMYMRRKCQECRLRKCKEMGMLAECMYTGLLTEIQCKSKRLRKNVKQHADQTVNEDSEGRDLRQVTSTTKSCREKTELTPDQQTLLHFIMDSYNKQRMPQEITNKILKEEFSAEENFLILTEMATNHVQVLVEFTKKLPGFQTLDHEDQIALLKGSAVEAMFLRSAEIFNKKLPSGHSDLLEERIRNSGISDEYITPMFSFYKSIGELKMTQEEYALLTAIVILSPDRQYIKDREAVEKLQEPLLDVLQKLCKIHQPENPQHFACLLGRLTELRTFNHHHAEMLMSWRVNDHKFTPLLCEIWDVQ
Put plainly: Human FXR (NR1H4) Assay (Gal4 promoter driven luciferase reporter, CHO cells). The assay is classed as cell-based. From the text:
Assays Human FXR (NR1H4) Assay
Determination of a ligand mediated Gal4 promoter driven transactivation to quantify ligand binding mediated activation of FXR. FXR Reporter Assay kit purchased from Indigo Bioscience (Catalogue number: IB00601) to determine the potency and efficacy of compound developed by Enanta that can induce FXR activation. The principle application of this reporter assay system is to quantify functional activity of human FXR. The assay utilizes non-human mammalian cells, CHO (Chinese hamster ovary) cells engineered to express human NR1H4 protein (referred to as FXR). Reporter cells also incorporate the cDNA encoding beetle luciferase which catalyzes the substrates and yields photon emission. Luminescence intensity of the reaction is quantified using a plate-reading luminometer, Envision. Reporter Cells include the luciferase reporter gene functionally linked to an FXR responsive promoter. Thus, quantifying changes in luciferase expression in the treated reporter cells provides a sensitive surrogate measure of the changes in FXR activity. […] The assay is according to the manufacturer's instructions. In brief, the assay was performed in white, 96 well plates using final volume of 100 ul containing cells with different doses of compounds. Retrieve Reporter Cells from −80° C. storage. Perform a rapid thaw of the frozen cells by transferring a 10 ml volume of 37° C. cell recovery medium into the tube of frozen cells. Recap the tube of Reporter Cells and immediately place it in a 37° C. water bath for 5-10 minutes. Retrieve the tube of Reporter Cell Suspension from the water bath. Sanitize the outside surface of the tube with a 70% alcohol swab, and then transfer it into the cell culture hood. Dispense 90 μl of cell suspension into each well of the 96-well Assay Plate. Transfer the plate into 37° C. incubator, allowing the cells adherent to the bottom of the well. Dilute compounds in Dilution Plate (DP), and administrate to cells at Assay Plate (AP). DMSO content of the samples was kept at 0.2%. Cells were incubated for additional 22 hours before luciferase activities were measured. Thirty minutes before intending to quantify FXR activity, remove Detection Substrate and Detection Buffer from the refrigerator and place them in a low-light area so that they may equilibrate to room temperature. Remove the plate's lid and discard all media contents by ejecting it into an appropriate waste container. Gently tap the inverted plate onto a clean absorbent paper towel to remove residual droplets. Cells will remain tightly adhered to well bottoms. Add 100 μl of luciferase detection reagent to each well of the assay plate. Allow the assay plate to rest at room temperature for at least 5 minutes following the addition of LDR. Set the instrument (Envision) to perform a single 5 second “plate shake” prior to reading the first assay well. Read time may be 0.5 second (500 mSec) per well.
In general terms: Reporter assays use an easily measured gene product as a stand-in for the process of interest.

The mark [1] stands for this setting: efficacy normalized to CDCA set as 100%.

Where two headings read alike, the source gives them in different places.

Take `CC(C)N(O)C(=O)CC[C@@H](C)[C@H]1CC[C@H]2[C@@H]3[C@H](O)C[C@@H]4C[C@H](O)CC[C@]4(C)[C@H]3CC[C@]12C` [Example 2]: the EC50 is greater than 10 µM. In addition, under setting [1], the “Efficacy (%)” value was found to be 13%.

In the case of `C[C@H](CCC(=O)N(O)C1CCCCC1)[C@H]1CC[C@H]2[C@@H]3[C@H](O)C[C@@H]4C[C@H](O)CC[C@]4(C)[C@H]3CC[C@]12C` [Example 3], the EC50 is greater than 10 µM. For the same compound, under setting [1], the “Efficacy (%)” value is listed as 2%.

Regarding `CC[C@H]1[C@@H](O)[C@@H]2[C@H](CC[C@]3(C)[C@@H]([C@H](C)CCC(=O)N(O)Cc4ccccc4)CC[C@@H]23)[C@@]2(C)CC[C@@H](O)C[C@@H]12` [Example 4], the EC50 was 1 to 10 µM. Further, the “Efficacy (%)” value under setting [1] was found to be 270%.

`CC[C@H]1[C@@H](O)[C@@H]2[C@H](CC[C@]3(C)[C@@H]([C@H](C)CCCc4cc(F)c(O)c(F)c4)CC[C@@H]23)[C@@]2(C)CC[C@@H](O)C[C@@H]12` [Example 9] showed an EC50 of 1 to 10 µM. In addition, under setting [1], the “Efficacy (%)” value is recorded as 271%.

`CC[C@H]1[C@@H](O)[C@@H]2[C@H](CC[C@]3(C)[C@@H]([C@H](C)CCCS(=O)(=O)[O-])CC[C@@H]23)[C@@]2(C)CC[C@@H](O)C[C@@H]12.[Na+]` [Example 10] came in with a concentration for a half-maximal effect (EC50) of 1 to 10 µM. For the same compound, the “Efficacy (%)” value under setting [1] is 4%.

For the compound `CC[C@H]1[C@@H](O)[C@@H]2[C@H](CC[C@]3(C)[C@@H]([C@H](C)CCS(=O)(=O)[O-])CC[C@@H]23)[C@@]2(C)CC[C@@H](O)C[C@@H]12.[Na+]` [Example 11], the “Efficacy (%)” value is 1%.

With `CC[C@H]1[C@@H](O)[C@@H]2[C@H](CC[C@]3(C)[C@@H]([C@H](C)CCS(=O)(=O)N(Cc4ccc(OC)cc4)Cc4ccc(OC)cc4)CC[C@@H]23)[C@@]2(C)CC[C@@H](O)C[C@@H]12` [Example 12], the concentration for a half-maximal effect (EC50) lay in the range of 1 to 10 µM. Besides, under setting [1], the “Efficacy (%)” value is 1%.

Take `CC[C@H]1[C@@H](O)[C@@H]2[C@H](CC[C@]3(C)[C@@H]([C@H](C)CCS(N)(=O)=O)CC[C@@H]23)[C@@]2(C)CC[C@@H](O)C[C@@H]12` [Example 13]: the concentration for a half-maximal effect (EC50) was 1 to 10 µM. The “Efficacy (%)” value under setting [1] is recorded as 118%.

`CC[C@H]1[C@@H](O)[C@@H]2[C@H](CC[C@]3(C)[C@@H]([C@H](C)CC=CCS(N)(=O)=O)CC[C@@H]23)[C@@]2(C)CC[C@@H](O)C[C@@H]12` [Example 14] showed a concentration giving a half-maximal response (EC50) of 0.1 to 1 µM. Besides, under setting [1], the “Efficacy (%)” value was found to be 167%.

For the compound `CC[C@H]1[C@@H](O)[C@@H]2[C@H](CC[C@]3(C)[C@@H]([C@H](C)CCCCS(N)(=O)=O)CC[C@@H]23)[C@@]2(C)CC[C@@H](O)C[C@@H]12` [Example 15], the EC50 was 0.1 to 1 µM. Further, the “Efficacy (%)” value under setting [1] is 195%.

With `CC[C@H]1[C@@H](O)[C@@H]2[C@H](CC[C@]3(C)[C@@H]([C@H](C)CCCCS(=O)(=O)N(C)Cc4ccccc4)CC[C@@H]23)[C@@]2(C)CC[C@@H](O)C[C@@H]12` [Example 16], the EC50 lay within 1 to 10 µM. Further, under setting [1], the “Efficacy (%)” value is 97%.

`CC[C@H]1[C@@H](O)[C@@H]2[C@H](CC[C@]3(C)[C@@H]([C@H](C)CC=CS(N)(=O)=O)CC[C@@H]23)[C@@]2(C)CC[C@@H](O)C[C@@H]12` [Example 17] registered a 50% effective concentration (EC50) of 0.1 to 1 µM. The “Efficacy (%)” value under setting [1] was 147%.

As to `CC[C@H]1[C@@H](O)[C@@H]2[C@H](CC[C@]3(C)[C@@H]([C@H](C)/C=C/S(=O)(=O)NCc4ccc(OC)cc4)CC[C@@H]23)[C@@]2(C)CC[C@@H](O)C[C@@H]12` [Example 18], the EC50 lay within 1 to 10 µM. Also, the “Efficacy (%)” value under setting [1] stood at 16%.

Compound `CC[C@H]1[C@@H](O)[C@@H]2[C@H](CC[C@]3(C)[C@@H]([C@H](C)/C=C/S(N)(=O)=O)CC[C@@H]23)[C@@]2(C)CC[C@@H](O)C[C@@H]12` [Example 19] had a concentration giving a half-maximal response (EC50) of 1 to 10 µM. Besides, the “Efficacy (%)” value under setting [1] came out at 3%.

On to `CC[C@H]1[C@@H](O)[C@@H]2[C@H](CC[C@]3(C)[C@@H]([C@H](C)CCS(=O)(=O)NCc4ccc(OC)cc4)CC[C@@H]23)[C@@]2(C)CC[C@@H](O)C[C@@H]12` [Example 20], for which the EC50 was greater than 10 µM. For the same compound, under setting [1], the “Efficacy (%)” value is reported as 60%.

Regarding `CC[C@H]1[C@@H](O)[C@@H]2[C@H](CC[C@]3(C)[C@@H]([C@H](C)CCS(=O)(=O)NC(C)=O)CC[C@@H]23)[C@@]2(C)CC[C@@H](O)C[C@@H]12` [Example 21], the 50% effective concentration (EC50) is 1 to 10 µM. In addition, the “Efficacy (%)” value under setting [1] is 74%.

For `CC[C@H]1[C@@H](O)[C@@H]2[C@H](CC[C@]3(C)[C@@H]([C@H](C)CCS(=O)(=O)NC(=O)c4ccccc4)CC[C@@H]23)[C@@]2(C)CC[C@@H](O)C[C@@H]12` [Example 22], the concentration giving a half-maximal response (EC50) was in the range of 1 to 10 µM. The “Efficacy (%)” value under setting [1] was 249%.

Consider `CC[C@H]1[C@@H](O)[C@@H]2[C@H](CC[C@]3(C)[C@@H]([C@H](C)CCCS(N)(=O)=O)CC[C@@H]23)[C@@]2(C)CC[C@@H](O)C[C@@H]12` [Example 23], for which the concentration for a half-maximal effect (EC50) was in the range of 1 to 10 µM. Moreover, under setting [1], the “Efficacy (%)” value worked out at 202%.

As for `CC[C@H]1[C@@H](O)[C@@H]2[C@H](CC[C@]3(C)[C@@H]([C@H](C)CCOP(=O)(O)c4ccccc4)CC[C@@H]23)[C@@]2(C)CC[C@@H](O)C[C@@H]12` [Example 24], the 50% effective concentration (EC50) is 1 to 10 µM. Further, the “Efficacy (%)” value under setting [1] stood at 75%.

Take `CC[C@H]1[C@@H](O)[C@@H]2[C@H](CC[C@]3(C)[C@@H]([C@H](C)CCCOP(=O)(Oc4ccccc4)c4ccccc4)CC[C@@H]23)[C@@]2(C)CC[C@@H](O)C[C@@H]12` (stereo partly drawn) [Example 26]: the concentration giving a half-maximal response (EC50) fell in the range of 1 to 10 µM and the “Efficacy (%)” value worked out at 129%.

`CCOP(=O)(CCC[C@@H](C)[C@H]1CC[C@H]2[C@@H]3[C@H](O)[C@H](CC)[C@@H]4C[C@H](O)CC[C@]4(C)[C@H]3CC[C@]12C)OCC` [Example 27]: the EC50 is 1 to 10 µM and the “Efficacy (%)” value is reported as 246%.

As for `CCOP(=O)(CCC[C@@H](C)[C@H]1CC[C@H]2[C@@H]3[C@H](O)[C@H](CC)[C@@H]4C[C@H](O)CC[C@]4(C)[C@H]3CC[C@]12C)c1ccccc1` (stereo partly drawn) [Example 28], the 50% effective concentration (EC50) fell in the range of 0.1 to 1 µM and the “Efficacy (%)” value was 265%.

For `CCOP(=O)(CC[C@@H](C)[C@H]1CC[C@H]2[C@@H]3[C@H](O)[C@H](CC)[C@@H]4C[C@H](O)CC[C@]4(C)[C@H]3CC[C@]12C)c1ccccc1` (stereo partly drawn) [Example 29], the EC50 lay within 1 to 10 µM and the “Efficacy (%)” value is given as 49. %.
